Source: the supplement of paper PMC8671470

Key:
Conditions in all cases: 72 h
[1] = test system: NOMO-1; assay: cell viability (% survival relative to DMSO control, bortezomib = 0%); higher = less cytotoxic
In short: (§1)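 Reported values are percent survival from duplicate wells, averaged. Fifteen myeloid leukaemia cell lines were treated in 384-well plates with compounds at 1, 10, 100, 1000 or 10000 nM for 72 h at 37 °C in 5% CO2. Signals from CellTiter-Glo luminescence were scaled with vehicle as 100% and a 10 µM positive control as 0%.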

[2] = test system: KG-1; assay: as above
In short: as §1

[3] = test system: LAMA-84; assay: as above
In short: as §1

[4] = test system: THP-1; assay: as above
In short: as §1

[5] = test system: K-562; assay: as above
In short: as §1

[6] = test system: Mono-Mac-6; assay: as above
In short: as §1

[7] = test system: ML-2; assay: as above
In short: as §1

[8] = test system: BV-173; assay: as above
In short: as §1

[9] = test system: KU-812; assay: as above
In short: as §1

[10] = test system: HL-60; assay: as above
In short: as §1

[11] = test system: MV4-11; assay: as above
In short: as §1

[12] = test system: HEL; assay: as above
In short: as §1

[13] = test system: SHI-1; assay: as above
In short: as §1

[14] = test system: KCL-22; assay: as above
In short: as §1

[15] = test system: MOLM-13; assay: as above
In short: as §1

[16] = test system: NOMO-1
In short: (§2)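 For the IC50, dose–response curves were fitted with a log-logistic model. The data came from fifteen myeloid leukaemia cell lines grown in RPMI 1640 at densities in the linear growth range and incubated in 384-well plates for 72 h at 37 °C under 5% CO2. Doses were five tenfold steps from 1 to 10,000 nM in duplicate, and luminescent ATP viability was normalised to vehicle and to a positive control at 10 µM before four-parameter fitting.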

[17] = test system: KG-1
In short: as §2

[18] = test system: LAMA-84
In short: as §2

[19] = test system: THP-1
In short: as §2

[20] = test system: K-562
In short: as §2

[21] = test system: Mono-Mac-6
In short: as §2

[22] = test system: ML-2
In short: as §2

[23] = test system: BV-173
In short: as §2

[24] = test system: KU-812
In short: as §2

[25] = test system: HL-60
In short: as §2

[26] = test system: MV4-11
In short: as §2

[27] = test system: HEL
In short: as §2

[28] = test system: SHI-1
In short: as §2

[29] = test system: KCL-22
In short: as §2

[30] = test system: MOLM-13
In short: as §2

CCCCCN(C)CCC(O)(P(=O)(O)O)P(=O)(O)O [Ibandronate]
cell viability [%]
Conditions | 1 nM | 10 nM | 100 nM | 1000 nM | 10000 nM
[1] | 99.6 | 99.3 | 94.4 | 109 | 112
[2] | 103 | 108 | 96.5 | 115 | 111
[3] | 104 | 98.3 | 100 | 106 | 103
[4] | 94.7 | 102 | 103 | 113 | 115
[5] | 113 | 92 | 81.9 | 102 | 101
[6] | 93.1 | 98.3 | 90 | 103 | 115
[7] | 94 | 110 | 97.2 | 114 | 112
[8] | 94.6 | 96 | 94.4 | 120 | 122
[9] | 88.2 | 90.9 | 89.9 | 110 | 105
[10] | 92.4 | 111 | 103 | 90.5 | 142
[11] | 95 | 90.5 | 104 | 86.6 | 116
[12] | 107 | 105 | 109 | 95.5 | 114
[13] | 108 | 108 | 103 | 98 | 107
[14] | 107 | 105 | 95.1 | 99.8 | 112
[15] | 84.4 | 110 | 111 | 100 | 117

Conditions | IC50 (cell viability) [µM]
[16] | > 10
[17] | > 10
[18] | > 10
[19] | > 10
[20] | > 10
[21] | > 10
[22] | > 10
[23] | > 10
[24] | > 10
[25] | > 10
[26] | > 10
[27] | > 10
[28] | > 10
[29] | > 10
[30] | > 10

Cn1cc(-c2ccncc2)c(-c2ccc(OCc3ccc4ccccc4n3)cc2)n1
cell viability [%]
Conditions | 1 nM | 10 nM | 100 nM | 1000 nM | 10000 nM
[1] | 103 | 98.8 | 97 | 101 | 93.9
[2] | 97.7 | 96.7 | 110 | 102 | 87.4
[3] | 104 | 114 | 98.4 | 95.8 | 60
[4] | 92.7 | 101 | 100 | 104 | 92
[5] | 99.5 | 109 | 106 | 98.5 | 57.9
[6] | 92.7 | 87.4 | 89.5 | 90.5 | 52.3
[7] | 101 | 94.6 | 98.3 | 103 | 69.3
[8] | 93.5 | 97.7 | 93.6 | 90.2 | 57.3
[9] | 95.4 | 103 | 93.3 | 92.4 | 43.1
[10] | 117 | 92.7 | 103 | 136 | 64.2
[11] | 101 | 118 | 91.5 | 76.5 | 7.29
[12] | 93 | 119 | 96.9 | 99.8 | 59.4
[13] | 99 | 104 | 107 | 104 | 93.7
[14] | 116 | 96 | 96.4 | 102 | 73.7
[15] | 123 | 99.5 | 95.9 | 69.4 | 6.76

Conditions | IC50 (cell viability) [µM]
[16] | > 10
[17] | > 10
[18] | > 10
[19] | > 10
[20] | > 10
[21] | > 10
[22] | > 10
[23] | > 10
[24] | 8.42
[25] | > 10
[26] | 2.09
[27] | 9.86
[28] | > 10
[29] | > 10
[30] | 1.74

CN1CCN(CCCN2c3ccccc3Sc3ccc(C(F)(F)F)cc32)CC1 [Trifluoperazine]
cell viability [%]
Conditions | 1 nM | 10 nM | 100 nM | 1000 nM | 10000 nM
[1] | 104 | 108 | 101 | 88.3 | 81
[2] | 106 | 103 | 100 | 79.8 | 42.8
[3] | 101 | 100 | 98.8 | 83 | 76.5
[4] | 97.9 | 102 | 100 | 87.6 | 72.4
[5] | 113 | 89.5 | 85.1 | 92 | 0.986
[6] | 108 | 112 | 90.4 | 83.2 | 66.6
[7] | 102 | 102 | 103 | 95.9 | 48.4
[8] | 97.3 | 94.8 | 103 | 97.6 | 55.3
[9] | 101 | 94 | 97.8 | 86.3 | 65.6
[10] | 100 | 101 | 88.6 | 95.3 | 20.2
[11] | 99.5 | 79.6 | 93.8 | 89.9 | 50.3
[12] | 110 | 82.7 | 99.9 | 86.5 | 65.1
[13] | 113 | 96.2 | 103 | 92.1 | 64.4
[14] | 108 | 109 | 115 | 78.1 | 42.1
[15] | 105 | 85.4 | 101 | 93.2 | 57.7

Conditions | IC50 (cell viability) [µM]
[16] | > 10
[17] | 3.54
[18] | > 10
[19] | > 10
[20] | 2.91
[21] | > 10
[22] | 9.55
[23] | > 10
[24] | > 10
[25] | 5.18
[26] | 9.52
[27] | > 10
[28] | > 10
[29] | 3.49
[30] | > 10
